The values below come from ChEMBL document CHEMBL5104105, “Identification of the first structurally validated covalent ligands of the small GTPase RAB27A” (RSC Med Chem, 2022).

For test [1], the species on record is Homo sapiens. Briefly: Covalent binding affinity to Spl2/Rab27A C188 mutant fusion protein (unknown origin) assessed as half-life of adduct formation by measuring protein mass shift after 24 hrs by intact-protein mass spectrometry.
The species entered for test [2] is Homo sapiens. As to the kind of experiment: Covalent binding affinity to Spl2/Rab27A C123 mutant fusion protein (unknown origin) assessed as half-life of adduct formation by measuring protein mass shift after 8 hrs by intact-protein mass spectrometry.

SMILES strings stand for the structures. Activity calls are given as the source filed them. No cut-off for these calls is given here.

In the case of `C=CC(=O)N1CCC[C@H]1c1ccc(OC)cc1`, the outcome in the test filed under Homo sapiens [1] was Active.

As to `C=CC(=O)Nc1nc2ccccc2n1CCc1ccccn1`, the outcome in the test filed under Homo sapiens [2] and in the test listed under Homo sapiens [1] was Active.
